Reference: US9011853B2, “B7-H4 fusion proteins and methods of use thereof” (Amplimmune, Inc., priority 2009, dated 2015)

Columns and labels:
[1] = system: CTLA4KD/BDC2.5/NOD mice; test: Autoimmune diabetes in CTLA4KD/BDC2.5/NOD mice; assay type: in vivo, mouse
Experimental: CTLA4 KD/NOD mice (Chen, et al., PNAS (2006)) were bred with BDC2.5 TCR transgenic mice (Katz, et al., Cell, 74(6):1089-100 (1993)). Both female and male mice at age of 11 weeks were randomly assigned into experimental groups: vehicle (3 mice), and B7-H4-Ig (5 mice). Mice were treated with B7-H4-Ig 3 times per week for 4 weeks (15 mg/kg, per i.p. injection), and monitored 3 times per week for glucose content in the urine first with Diastix. […] Diabetes was determined when blood glucose reached ≧600 mg/dL.

[2] = Clearance from circulation; assay type: in vivo; settings: compared with control IgG
[3] = system: lymph node cells and splenocytes; test: In vitro antigen-specific recall responses of cells from treated R-EAE mice; assay type: in vivo, mouse
Experimental: Draining lymph nodes (axillary, brachial, and inguinal) were harvested, and single cell suspensions were obtained by mashing through sterile 60-mesh wire screens. In 96-well microtiter plates, 5×10^5 erythrocyte-free (Tris-NH4Cl-treated) lymph node cells per well were incubated in supplemented culture medium with or without antigen at 37° C. in 7% CO2 for […] and then pulsed with 1 μCi/well of [^3H]-Thymidine for the final 48 h of culture. Proliferation was determined by uptake of [^3H]-Thymidine detected using a Topcount Microplate Scintillation Counter (Packard Instruments, Meridan, Conn.). Results are expressed as the mean of triplicate cultures from individual animal±SEM. Supernatants were collected at 72 hr for cytokine analysis. Cytokine measurements were performed using the Mouse Cytokine 10-Plex system and Luminex Liquidchip analyzer (Qiagen, Valencia, Calif.) or ELISA.
Lymph nodes were isolated from the murine B7-H4-Ig and Control IgG injected EAE mice as described above. T cells were harvested and were elicited with PLP139-151, the disease inducing dominant epitope, and PLP178-191, the spread epitope-specific peptide, in vitro. [^3H]-thymidine was added to the in vitro stimulation assay to analyze T cell proliferation.
Lymph nodes were isolated from Control IgG and murine B7-H4-Ig treated mice as described above. T cells were harvested and immune responses were elicited with PLP139-151, the disease inducing dominant peptide, and PLP178-191, the spread epitope peptide, in vitro. Supernatant was collected and analyzed for IFN-γ via commercially available ELISA kit.
Draining lymph nodes were harvested from the animals, and single cell suspensions prepared as described above and reactivated in vitro in the presence of anti-CD3 (0.1-10 μg/mL), PLP139-151 (1-20 μg/mL), or OVA323-339 (1-20 μg/mL). T cell proliferation in vitro was analyzed by [^3H] thymidine incorporation.
The impact of B7-H4-Ig treatment on epitope spreading was also examined. To do so, spleens and draining lymph nodes were collected from the same mice that were analyzed for the number and phenotype of CD4^+ T cells. SJL mouse were immunized with 50 μg of PLP139-151 peptide emulsified in CFA. Mice were treated B7-H4-Ig during remission: 60 or 100 ug per dose, 3 doses/wk, for 2 weeks (6 doses). On Day 35 total splenocytes and lymph node cells (5×10^5 cells per 200 ul culture) were activated in separate wells per mouse in the presence of anti-CD3 (1 ug/ml), PLP139-151 or PLP178-191 (20 μg/mL). At 24 hours following the initiation of culture, 1 μCi of ^3[H] tritiate thymidine was added to each well and wells were analyzed at 72 hours post the initiation of culture. This presented as the mean CPM. […] Therefore, B7-H4-Ig treatment during remission of ongoing R-EAE in SJL mice appears to decrease epitope spreading via an increase in the number of Treg cells. […] The higher dose appears more efficacious to lower the disease score at later time points (beyond Day 42 post disease initiation).

[4] = system: CD4^+ T cells, Treg cells, effector/memory CD4^+ T cells; test: T cell subsets in spleen, draining lymph nodes and CNS of R-EAE mice (FACS, immunochemical staining); assay type: in vivo, mouse
From the text: Mice were anesthetized with nembutal and perfused with phosphate-buffered saline (PBS). Brains and spinal cords from each mouse were frozen in OCT (Miles Laboratories; Elkhart, Ind.) in liquid nitrogen. Tissue from the lower lumbar region of the spinal cord was sectioned at 6 μm on a Reichert-Jung 1800 cryotome and mounted on Superfrost Plus electrostatically charged slides. Cross-sections (10 μm thick for brains and 6 μm for spinal cords) from longitudinal sections of brain and spinal cord were performed. Tissues were stained with biotin-conjugated antibody to mouse CD4, PLP and FoxP3. Positive staining of biotinylated antibodies was visualized by a Tyramide Signal Amplification (TSA) Direct kit (NEN, Boston, Mass.) according to manufacturer's instructions and fluorescein anti-mouse IgG (Vector Laboratories). Sections were counterstained with 4,6-diamidino-2-phenylindole (DAPI; Sigma-Aldrich) and then coverslipped with Vectashieldmounting medium (Vector Laboratories). Slides were examined and images were acquired via epifluorescence using the SPOT RT camera (Diagnostic Instruments, Sterling Heights, Mich.). Sections from each group were analyzed at 40 or 100× magnification.
The effect of B7-H4-Ig treatment on the number of Treg cells in vivo was analyzed in this study. The effect of B7-H4-Ig on the number and phenotype of CD4^+ T cells infiltrating into the CNS following B7-H4-Ig treatment, the relevant site for activity in vivo, was determined. […] SJL mice were first immunized with PLP139-151 peptide. B7-H4-Ig treatment started during remission (Day 23). Mice received mouse Control IgG, 100 μg, or B7-H4-Ig at either 60 or 300 μg, 3 times per week for 2 weeks or 4 weeks. Half of the animals (5 mice from each group) were euthanized on Day 35, after 6 doses of B7-H4-Ig. The rest of the animals (5 mice from each group) were euthanized on Day 50, after 12 doses of B7-H4-Ig. Mouse spleens, draining lymph nodes, spinal cords and brains were collected, tissues were made into a single cell suspension and counted via the use of a hemocytometer, and analyzed for the presence of effector/memory CD4^+ T cells (CD4^+CD44^+) and Treg cells (CD4^+CD25^+FoxP3^+). Whole cerebellar and lumbar spinal cord tissue samples were snap frozen and processed as described above to analyze the number of CD4^+ and FoxP3^+ cells present within the CNS by histology.
Cells isolated from spleen, draining lymph node and also lumbar spinal cord were stained for CD4, CD44 and FoxP3 followed by FACS analysis to obtain the number of total CD4^+ T cells, Treg (CD4^+/Foxp3^+) and effector/memory CD4^+ T cells (CD4^+/CD44^+). The data is presented in FIGS. 43A, 43B, and 43C as the mean number of cells for each phenotype from individual mouse. […] Similar data was obtained after the full course of 12 treatments.

[5] = Day 35 splenocytes and lymph node cells, treated during remission 60 or 100 ug per dose, 3 doses/wk, 2 weeks (FIGS. 45A, 45B)

## B7-H4-Ig: B7-H4 extracellular domain fused to Ig Fc; bare label is the human protein in Example 3, murine protein in Examples 1, 2, 5, 7-11
[1]; 15 mg/kg i.p. 3 times per week for 4 weeks from age 11 weeks (FIG. 50)
  autoimmune diabetes (blood glucose ≧600 mg/dL): delayed autoimmune diabetes
[1]; 15 mg/kg i.p. 3 times per week for 4 weeks from age 11 weeks, 10 weeks post treatment
  age until which treated mice did not develop diabetes: 21 weeks old
[2]
  clearance from circulation: cleared from circulation more rapidly than control IgG
[3]; [5]
  proliferative response to PLP139-151: decreased the proliferative response
  proliferative response to PLP178-191: decreased the proliferative response
[3]; administered on Day 0 (FIG. 38)
  IFN-γ production in ex vivo T cell recall with PLP139-151 peptide: specific inhibition of immune response to PLP139-151 peptide
[3]; draining lymph nodes, Day 10 study (FIG. 40)
  T cell proliferation when stimulated with anti-CD3: robust T cell proliferation
[3]; draining lymph nodes, Day 10 study, both 3 and 15 mg/kg doses (FIG. 40)
  T cell response to PLP139-151 peptide stimulation ([3H] thymidine): little to no response
[4]; FIG. 43C
  amount of Treg cells in the CNS: appeared constant
[4]; R-EAE mice treated during remission (FIGS. 43A, 43B)
  number of Treg (CD4+/FoxP3+) cells within the spleen and lymph node: remarkably increased
[4]; control IgG vs B7-H4-Ig treated mice
  level of demyelination via anti-PLP staining: no significant difference in the level of demyelination
[4]; lumbar spinal cord cross sections
  number of FoxP3+ cells within the CNS (histology): increases the number of FoxP3^+ cells within the CNS
[4]; vs Control IgG injected mice (FIG. 44)
  percentage of Treg cells among CD4+ T cells in the CNS: significantly higher
[4]; vs Control IgG treated mice (FIG. 43C)
  effector/memory T cells (CD4+/CD44+) within the CNS: decreased
